Here are results for one compound from publication PMC4744035, “In Vivo, In Vitro, and In Silico Characterization of Peptoids as Antimicrobial Agents” (PLoS ONE, 2016).

Each structure is given as a SMILES string. ≈ marks a conversion by molar mass, not a printed value. Square brackets hold non-standard residues; d marks the D form. Peptide text beside a SMILES is read from it. Nspe = C[C@H](NCC(=O)O)c1ccccc1; Nlys = NCCCCNCC(=O)O

The subject of one data set is P. maltophilia ATCC13637. As to the kind of experiment: microbe, parasite or virus in culture. The settings on record: P. maltophilia ATCC13637. The procedure, abridged: (§1)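 Growth inhibition is determined by modified microdilution in Mueller Hinton broth, with peptoids prepared in 0.01% acetic acid containing 0.2% bovine serum albumin. Final inoculum is 2–7 x 10^5 CFU/mL; endpoint is absence of growth after overnight 37°C.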

The test system of a further data set is E. faecalis W61950 (VRE). Kind of data set: microbe, parasite or virus in culture. The settings on record: E. faecalis W61950 (VRE). An outline of the steps:
as §1

The subject of a further data set is E. coli 64771 (ESBL). As to the kind of experiment: microbe, parasite or virus in culture. As to conditions: E. coli 64771 (ESBL). An outline of the steps:
as §1

In data set [1] the test system is P. aeruginosa H1027 (MDR). Kind of data set: microbe, parasite or virus in culture. As to conditions: P. aeruginosa H1027 (MDR). The procedure, abridged: as §1
The subject of a further data set is E. faecalis F43559 (VRE). Kind of data set: microbe, parasite or virus in culture. The settings on record: E. faecalis F43559 (VRE). An outline of the steps: as §1
A further data set relates to E. faecium mic80 (VRE). As to the kind of experiment: microbe, parasite or virus in culture. As to conditions: E. faecium mic80 (VRE). The procedure, abridged: as §1
The subject of the next data set is E. coli 63103 (ESBL). Kind of data set: microbe, parasite or virus in culture. As to conditions: E. coli 63103 (ESBL). An outline of the steps:
as §1

For another data set, the system named is P. aeruginosa 213 (MDR). Kind of data set: microbe, parasite or virus in culture. The settings on record: P. aeruginosa 213 (MDR). An outline of the steps: as §1
Another data set concerns B. subtilis ATCC 6633. The class given is cell-based. The procedure, abridged:
(§2)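 MICs determined by 2:1 serial broth microdilution in cation-adjusted Mueller-Hinton broth per CLSI M7-A6, using inoculum at 1 x 10^6 CFU/mL mixed 1:1 with peptoid solution. Three independent replicates, each with two parallel trials.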

In another data set the test system is E. coli ATCC 35218. The class given is cell-based. An outline of the steps: as §2
Another data set has as its system S. aureus (ATCC 25923). As to the kind of experiment: Murine model of invasive S. aureus infection. Format: in vivo, CD1 mice. As to conditions: mice, 4 mg/kg. The procedure: Animal experiments were performed in accordance with University of British Columbia Care Ethics Committee approval and guidelines as per animal care certificate #A04-0020. Female CD1 mice (6–8 week old) were weighed, marked, and injected with 200 μL of S. aureus (ATCC 25923) ~10^9 CFU/mouse suspended in Mueller Hinton broth containing 5% mucin and injected intraperitoneally. Four hours after infection, animals were treated with 4 mg/kg or 100μg per mouse of peptoid 1 (experimental group; n = 10) or an equivalent volume of saline (control group; n = 10). All animals were monitored two hours after each injection step, they were also evaluated at the end of the working day and the next morning a couple of hours prior to the experimental endpoint. Humane endpoints criteria; immobilization and shaking, were put down but none of the test subjects were evaluated to reach these endpoints prior to the experimental endpoint. The mice were euthanized 24 hours post-infection using CO2. The peritoneal cavity was exposed and washed with 5 mL PBS. […] Plates were incubated overnight at 37°C and colonies were counted the following day. […] The statistical differences between peptide treated and naïve mice were assessed using PRISM® (GraphPad Software Inc., San Diego, CA) using contingency tables Chi-square test, with a confidence interval of 99%. […]

Data set [2] has as its system 20 bacterial strains (13 Gram-negative, 7 Gram-positive). The procedure:
The MICs of test agents were measured using a modified broth micro-dilution method in Difco Mueller Hinton medium, on a panel of bacterial pathogens that were both susceptible and resistant to common antibiotics (S1 File). Briefly, serial dilutions were performed in 0.01% acetic acid containing 0.2% bovine serum albumin at 10-fold the desired final concentration. Ten μL of the 10-fold concentrated test reagents were added to each well of a 96-well polypropylene microtitre plate containing 90 μL of Mueller Hinton media per well. Bacteria were added to the plate from an overnight culture at a final concentration of 2–7 x 10^5 CFU/mL and incubated overnight at 37°C. The MIC is defined as the concentration at which no growth was observed.
Screening of peptoid antimicrobial activity against a panel of multidrug resistant superbugs was done according to the protocol described in the manuscript. The bacterial strains used in this panel included; P. aeruginosa PAO1 strain H103 [1], P. maltophilia ATCC#13637, S. aureus ATCC#25923 [1], E. faecalis ATCC#29212 [2], and E. cloacae 218R, constitutively expressing Class C chromosomal β-lactamase, were from the Hancock lab strains collection. An MRSA clinical isolate was kindly provided by Anthony Chow (Vancouver General Hospital, Vancouver, Canada). Two Klebsiella pneumoniae and two E. coli clinical isolates expressing extended spectrum β-lactamases (ESBL) were kindly provided by George Zhanel (Health Sciences Centre, Winnipeg, Canada). Vancomycin-resistant clinical isolates of Enterococcus faecalis and E. faecium were obtained from Ana M. Paccagnella (BC Centre for Disease Control, Vancouver, Canada). Three clinical isolates (#9, #198 and #213) of multi-drug resistant P. aeruginosa, were kindly provided by Carlos Kiffer (University of São Paulo, Brazil). […] Three P. aeruginosa clinical isolates of the Liverpool epidemic strain (LES) (H1027, H1030 and LES400) were all kindly provided by Craig Winstanley (University of Liverpool, UK). […] All tested bacterial strains were categorized as biohazard level 2 pathogens.

The next data set has as its system erythrocytes. As to the kind of experiment: Hemolytic activity (HD10/HD50). As to conditions: erythrocytes. The class given is cell-based. The text has this: Table 1 Characteristics of antimicrobial peptoids, screened for activity against B. subtilis and E. coli bacterial strains. | column: HD10 / HD50
Data set [3] can be described thus: Acute toxicity screen in healthy mice. The class given is in vivo. The settings on record: three healthy mice, 4 mg/kg (100 μg per mouse) intraperitoneally. As to the method: This dosage was selected to be on the conservative end of the dosage range typically evaluated for AMPs (1 mg/kg to 24 mg/kg) in other animal studies. To screen for acute signs of toxicity, three healthy mice were injected intraperitoneally with 4 mg/kg (100 μg per mouse) of peptoid 1, and a second control group with an equivalent volume of saline.

In the case of `C[C@@H](c1ccccc1)N(CC(N)=O)C(=O)CN(C(=O)CN(CCCCN)C(=O)CN(C(=O)CN(C(=O)CN(CCCCN)C(=O)CN(C(=O)CN(C(=O)CN(CCCCN)C(=O)CN(C(=O)CN(C(=O)CNCCCCN)[C@@H](C)c1ccccc1)[C@@H](C)c1ccccc1)[C@@H](C)c1ccccc1)[C@@H](C)c1ccccc1)[C@@H](C)c1ccccc1)[C@@H](C)c1ccccc1)[C@@H](C)c1ccccc1` [Peptoid 1, H-(NLys-Nspe-Nspe)4-NH2] (H-[Nlys][Nspe][Nspe][Nlys][Nspe][Nspe][Nlys][Nspe][Nspe][Nlys][Nspe][Nspe]-NH2), the MIC against P. maltophilia ATCC13637 came to 2 µg/mL (≈ 1.1 µM); with E. faecalis W61950 (VRE) it was 8 µg/mL (≈ 4.4 µM); in the data set on E. coli 64771 (ESBL), 2 µg/mL (≈ 1.1 µM); in data set [1], 2 µg/mL (≈ 1.1 µM); against E. faecalis F43559 (VRE), 4 µg/mL (≈ 2.2 µM); with E. faecium mic80 (VRE) it was 2 µg/mL (≈ 1.1 µM). Further, the results for the MIC with E. coli 63103 (ESBL) and against P. aeruginosa 213 (MDR) were 2 µg/mL (≈ 1.1 µM) and 4 µg/mL (≈ 2.2 µM), respectively. Besides, in the data set with B. subtilis ATCC 6633, the “MIC B. subtilis” value stood at 1.6 µM (≈ 2.91 µg/mL). In the data set with E. coli ATCC 35218, the “MIC E. coli” value was 6.3 µM (≈ 11.5 µg/mL). For the same compound, the toxicity result in the data set on S. aureus (ATCC 25923) is given as “no medium-term toxicity”. For the same compound, the “median MIC against all Gram-positive strains tested” value in data set [2] (7 Gram-positive strains) is 2 µg/mL. Moreover, the “number of pathogens with MIC ≤ 8 μg/mL” value in data set [2] (out of the 20 pathogens tested) worked out at 19. Moreover, the “HD10 (hemolytic activity)” value with erythrocytes (first value of HD10 / HD50 cell) stood at 21. In the data set on erythrocytes (second value of HD10 / HD50 cell), the “HD50 (hemolytic activity)” value stood at 100. In [3], the “acute signs of toxicity, 24 hours post-injection observation” value is “all mice appeared to be healthy and exhibited normal activity and no weight loss or abject morbidity”.
